Assay results as given in patent publication US20020127228A1, “PGT and apoptosis” (WELFIDE CORPORATION, priority 1998, published 2002).
“Also recorded” adds a separate entry of the source.

Columns and labels:
[1] = system: rat cerebral cortical neurons; experiment: Apoptosis induced by amyloid beta peptide in rat cerebral cortical neurons, Hoechst 33342; type: cell-based; conditions: for Inhibition of apoptosis induction (%): Experiment 7, test drug added with Aged-Aβ25-35
Procedure: The cortex region of embryonic day 17 or 18 rat cerebrum was extracted on ice. Cells were dispersed using a neuron dispersal solution (Sumilon) after sectioning. Afterwards, cells were dispersed to a density of 1.5×10^5 cells/cm^2 in a culturing flask that was coated with polyethyleneimine beforehand. After 4 days of culturing, the following experiment was provided. Therefore, as the culture medium, Neurobasal medium (Gibco) adding with B27 supplement (1/50 volume), 2-mercaptoethanol (27.5 μM), L-glutamic acid (25 μM), and glutamine (0.5 mM) was used.
Amyloid beta peptide 25-35 (Aβ25-35) was dissolved in distilled water to a concentration of 1 mM, incubated for 1 week at about 37° C., and Aged-Aβ25-35 was prepared. The induction of apoptosis in neuron was performed by the replacement of the aforementioned culture medium (with the exception of L-glutamicacid) containing 10 μM Aged-Aβ25-35.
4) It was investigated that the suppressing effect of PGE1 on apoptosis induced by amyloid beta peptide. After dissolution of PGE1 in ethanol, when the aforementioned 2) Aged-Aβ25-35 was added to the culture medium, simultaneously PGE1 solution was added to it. The final concentration thereof was 1 μM.
Cells were washed with PBS (−) at 24 hrs after induction of apoptosis and fixed for 30 mins at room temperature using a 1% glutaraldehyde solution (in PBS). Next, cell were washed with PBS (−) two times and followed by incubation with 1 mM Hoechst 33342 solution (in PBS) for 2 mins. Afterwards, observation of nuclear chromatin morphology was conducted using a fluorescence microscope with 4 arbitrary visual fields. Normal cells and apoptotic cells (cell where chromatin fragmentation or condensation was appeared) were counted, and the ratio was calculated as the incidence of apoptosis. The n was 3.
6) The relationship between PGT inhibitors and apoptosis induced by amyloid beta peptide was investigated. BrCG, which is a PGT inhibitor, with a final concentration of 60 μM was added simultaneously with PGE1 but other manners were in accordance with the aforementioned ones in 1)-5).
It was investigated that the influence of PGT antisense on the inhibitory effect of PGE1 against apoptosis induced by amyloid beta peptide. PGT antisense was used as it is with regard to the oligonucleotide in Experiment 3. The addition concentration thereof was 1.5 μM. Incidence of apoptosis was performed in accordance with Experiment 5. Then was 3.
1) Drugs having an inhibitory activity against induction of apoptosis by amyloid beta peptide were investigated. After dissolving test drugs (PGE1, PGK1, PGK2, and bicyclo PGE2) in ethanol, when Aged-Aβ25-35 was added to the culture medium, simultaneously test drug solution were added to it. But other manners were in accordance with Experiment 5. Ratio of normal cells and apoptotic cells allowed calculation of the rate of inhibition of apoptosis induction.

NRK52E cells = experiment: Apoptosis induced by NO donor GSNO in NRK52E kidney cells; type: cell-based, rat; conditions: for Effect on apoptosis in kidney cells (in words): NO donor GSNO
Procedure: 1) Apoptosis was induced by NO (nitrogen monoxide) in kidney cells. NRK52E cells, which are established from a rat renal tubule epithelial cell line, mainly derived from distal were cultured for 24 hours with a chamber slide that was coated with type-I collagen. Afterwards, the cultured medium was changed to a serum-free medium, and apoptosis was induced by addition of NOC12 (0.4 mM) or S-nitroso L-glutathione (GSNO: 1 mM), which are NO donors.
4) Inhibitory effect of PGE1 to the induction of apoptosis in kidney cells was investigated PGE1 was added simultaneously with the addition of a NO donor to a final concentration of 1 or 10 μM. After 24 hrs, cells were fixed with a 1% glutaraldehyde solution and stained with Hoechst 33342. Three visual fields were selected arbitrarily per slide, and the ratio of the cells count where nuclear fragmentation and condensation appeared was calculated with respect to the total cells in the field (magnification: 400x). The n was 5.
5) The relationship between PGT inhibitors and kidney cell apoptosis induced by GSNO was examined. With a final concentration of BrCG, which is a PGT inhibitor, of 60 μM, manners other than simultaneous addition with GSNO and PGE1 were in accordance with the aforementioned ones in 4). The PGE1 final concentration was 1 μM. The n was 3.
1) Drugs having suppressing activity on apoptosis inducted in kidney cells by an NO donor were investigated. PGK1 and bicyclo PGE2 were used as test drugs, but other manners were in accordance with Experiment 8. The final concentration of the test drugs was 1 μM. The n was 5.
2) It was investigated the effects of a PGT inhibitor on the apoptosis-suppressing activity of PGK1 and bicyclo PGE2 in kidney cells. With a final concentration of BrCG, which is a PGT inhibitor, of 60 μM, manners other than simultaneous addition of GSNO and test drugs were in accordance with the aforementioned methods in 1). The n was 4.

[2] = Hypotensive effect in anesthetized normal rats, mean blood pressure; type: in vivo, rat; parameters: Decrease in blood pressure: unit not given here; conditions: for Decrease in blood pressure: 100 μg/kg body weight into caudal artery, mean blood pressure before and after, n 3; for Hypotensive effect (in words): dose that suppresses apoptosis sufficiently
Procedure: 2) The hypotensive effect of the test drugs was examined. After anesthetizing normal rats (male, body weight of about 300 g) with intraperitoneal administration of Nembutal, the dorsal region was fixed. Next, a cannula was inserted in the carotid artery and blood pressure was measured through a transducer (Nihon Kohden Corporation); simultaneous recording was made in combination with a polygraph (Nihon Kohden Corporation). After dissolving the test drugs in ethanol, and diluted (x200) with saline. Administration was given in the caudal artery in a dose of 100 μg/kg body weight. The mean blood pressure (MBP) was measured. The decrease in blood pressure was calculated from the measured values before and after administration. The n was 3 per group.

SAPK/JNK = SAPK/JNK activation in PC12 cells after NGF withdrawal, Western blot; type: cell-based, rat; conditions: added with PGE1
Procedure: 4) Intercellular signals via SAPK/JNK Stress-activated protein kinase/Jun N-terminal kinase (abbreviated SAPK/JNK) is associated with apoptosis induction. Thus, intercellular signals within cells via SAPK/JNK were investigated based upon effects with respect to variations in SAPK/JNK activity.
The present experiment was performed with Western blot analysis. Individual additives were added to cell culturing medium for PC12 cells in accordance with the aforementioned experiment. Culturing was performed for 1-4 hrs after withdrawal of NGF. PC12 cells were lysed with a buffer solution, centrifuged, and the supernatant of cell lysate was prepared. After said supernatant was incubated with JNK 1 polyclonal antibodies (Santa Cruz Biotechnology) at 4° C. for 1 hr. Protein A sepharose was added to it. The resultant was incubated for 1 hr and the immunoprecipitate as described below was provided. […] of cell lysate was conducted with SDS-PAGE electrophoresis, and transferred to a nylon membrane (Amersham Pharmacia Biotech). Blotting of phosphorylated (active) JNK antibodies (Santa Cruz Biotechnology) was performed with this membrane, and bands were detected in accordance with the instruction manual. Intercellular signals within cells were amplified by chemiluminescence and auto radioactivity methods (FCL, Amersham Pharmacia Biotech).

PGT = target: T1, PGT (Rattus norvegicus, UniProt Q00910); experiment: Uptake of tritium-labelled PGE1 into differentiated PC12 cells through PGT; type: cell-based
T1 construct: endogenous in cells; host or cells: differentiated PC12 cells
Procedure: 1) Differentiated PC12 cells and tritium-labelled PGE1 (added concentration: 0.1 μM) were subjected to 10 mins of incubation at 37° C. Afterwards, the cells were washed with ice-cold phosphate buffered saline containing 5 g/l of bovine serum albumin and next washed with ice-cold phosphate buffered saline. Then, radioactivity was measured. The amount of PGE1 uptake into PC12 cells was calculated.
2) Bromcresol green (hereinafter noted as “BrCG”), which is a PGT inhibitor, was placed together in the culture medium at the addition of PGE1. Afterwards, treatment was conducted in the same manner as mentioned in 1).
3) The antisense oligonucleotide specific to PGT cDNA was designed as follows:
Moreover, said antisense was thioate modified. Using Lipofectin (Gibco), PC12 underwent transfection during 2 days prior to the addition of PGE1. Afterwards, treatment was conducted in the same manner as mentioned in 1).

[3] = system: differentiated PC12 cells; experiment: Induction of apoptosis by PGT antisense in differentiated PC12 cells, TUNEL staining; type: cell-based, rat
Procedure: 1) Rat adrenal pheochromocytoma PC12 cells (obtained by: ATCC; importer: Dainippon Pharmaceutical) was cultured in a Neurobasal culture medium containing mouse β NGF (100 ng/ml), N2 supplement (1%), and TIP (5 μg/ml transferrin, 5 μg/ml insulin, and 10 ng/ml progesterone). Differentiation of neuron was performed.
2) Then, antisense solution prepared in Example 6 is added (final concentration: 600 nM) and cultured for 2 days. As a negative control, Lipofectin in alone is added in the same manner and cultured for the same period of time. Apoptosis detection is performed by TUNEL staining after cell fixation (room temperature for 30 min) with a 10% neutral formalin buffer solution. Observation was made from 6 arbitrary visual fields using a light microscope. Total cells and TUNEL (apoptosis)—positive cells were counted, and the incidence of apoptosis was calculated.

[4] = Table 13, GSNO, test drug 1 μM, n 5
[5] = Tables 14 and 15, GSNO, test drug alone, n 4

Molecule	Effect on apoptosis induced by amyloid beta peptide (in words) [1]	Inhibition of apoptosis induction (%) [1] [%]	Effect on apoptosis in kidney cells (in words) (NRK52E cells)	Incidence of apoptosis (%) (NRK52E cells; [4])	Incidence of apoptosis (%) (NRK52E cells; [5])	Decrease in blood pressure [2]	Hypotensive effect (in words) [2]	Effect on PGE1 suppression of SAPK/JNK activation (in words) (SAPK/JNK)	Effect on PGE1 inhibition of amyloid beta peptide-induced apoptosis (in words) ([1]; BrCG 60 μM with PGE1)	Effect on apoptosis-suppressing activity of the test drug in kidney cells (in words) (NRK52E cells; BrCG 60 μM, GSNO)	Amount of PGE1 uptake (PGT; PGE1 0.1 μM with BrCG 1 μM) [fmol/mg protein/10 mins]	Amount of PGE1 uptake (PGT; PGE1 0.1 μM with BrCG 1 μM (second row, printed so)) [fmol/mg protein/10 mins]	TUNEL-positive cells (%) ([3]; antisense 600 nM, cultured 2 days)	Induction of apoptosis (in words) ([3]; antisense addition)	Amount of PGE1 uptake (PGT; PGE1 0.1 μM, antisense 0.5 μM transfected 2 days before) [fmol/mg protein/10 mins]	Amount of PGE1 uptake (PGT; PGE1 0.1 μM, antisense 1.5 μM transfected 2 days before) [fmol/mg protein/10 mins]
CCCCC[C@H](O)/C=C/[C@H]1C(=O)CC(=O)[C@@H]1CCCCCCC(=O)O [PGK1]	displayed activity to suppress apoptosis of neurons	45.4	suppressed apoptosis induced by GSNO in kidney cells	8 ± 1	8 ± 1	−5	substantially causes no decrease in blood pressure	–	–	–	–	–	–	–	–	–
CCCCC1C(=O)CC[C@H]2[C@@H]1CC(=O)[C@@H]2C/C=C\CCCC(=O)O (stereo partly shown) [bicyclo PGE2]	displayed activity to suppress apoptosis of neurons	40.6	suppressed apoptosis induced by GSNO in kidney cells	6 ± 1	9 ± 2	0	substantially causes no decrease in blood pressure	–	–	–	–	–	–	–	–	–
CCCCC[C@H](O)/C=C/[C@H]1C(=O)CC(=O)[C@@H]1C/C=C\CCCC(=O)O [PGK2]	displayed activity to suppress apoptosis of neurons	36.2	–	–	–	+2	substantially causes no decrease in blood pressure	–	–	–	–	–	–	–	–	–
Cc1c(C2(c3cc(Br)c(O)c(Br)c3C)OS(=O)(=O)c3ccccc32)cc(Br)c(O)c1Br [BrCG, Bromcresol green]	–	–	–	–	–	–	–	inhibited PGE1-suppressing effect	inhibited said effect of PGE1	inhibited apoptosis-suppressing activity by PGE1; also recorded: partially inhibited apoptosis-suppressing effect	60 ± 15	20 ± 8	–	–	–	–
PGT antisense: antisense oligonucleotide specific to PGT, 5′-GGCTTGAGCAGGAGCCCCAT-3′, thioate modified, used with Lipofectin (all phosphorothioate, sugars by position and methylation of C not given here)	–	–	–	–	–	–	–	inhibited PGE1-suppressing effect	–	–	–	–	12.9 ± 1.1	apoptosis have been induced	56 ± 17	14 ± 14
